{
  "source": "patent US20260085315A1",
  "about": "“POLYNUCLEOTIDE COMPOSITIONS AND METHODS FOR TREATMENT OF CANCER” (APTAH BIO, INC., priority 2023, published 2026)",
  "format_in_all_cases": "in vivo, athymic nude mice",
  "key": {"[1]": {"test_system": "Human Glioblastoma Cancer (U-87MG) xenograft", "test": "Histopathology of tumor samples with scoring", "design": "key to Score: Grade: 1: I; 2: II; 3: III; 4: IV; key to Score: Connective tissue stroma: 1: Minimal Fibrosis; 2: Mild Fibrosis; 3: Moderate Fibrosis; 4: Prominent; key to Score: N:C ratio: 3: High; 2: Low to High; 1: Low; key to Score: Apoptosis / Score: Lipid content: 4: Minimal; 3: Mild; 2: Moderate; 1: Prominent", "details": "individual animals; G3 APT20TTMG, G2 TMZ", "excerpt": "(§1) The fixed tissues were processed for routine paraffin embedding followed by sectioning (3-6 micron). The sections were stained with hematoxylin and eosin. The prepared slides were examined under microscope by the study pathologist to record histopathological findings in tumor samples, related to capsule formation, cell type, connective tissue stroma, apoptosis, necrosis, lipid content, nucleus-to-cytoplasmic (N:C) ratio, nuclei mitotic figures, tumor grade, and level of differentiation. Each histopathological finding and tumor volume were assigned a score ranging from 1 to 4 (Table 7). The sum of these scores for each sample was used to infer the tumor aggressiveness."}, "[2]": {"test_system": "Human Glioblastoma Cancer (U-87MG) xenograft", "test": "Histopathology of tumor samples with scoring", "design": "key: 4: Minimal; 3: Mild; 2: Moderate; 1: Prominent", "details": "individual animals; G3 APT20TTMG, G2 TMZ", "excerpt": "as §1"}, "[3]": {"test_system": "Human Glioblastoma Cancer (U-87MG) xenograft", "test": "Human glioblastoma xenograft tumor growth", "details": "for tumor reduction in relation to the negative control: APT20TTMG 20 mg/kg i.v. q3d, TMZ 5 mg/kg p.o. daily", "description": "Subcutaneous inoculation of the tumorigenic Human Glioblastoma Cancer Cell line (U-87MG) results in the formation of solid tumor in athymic nude mice. Under pathogen free conditions, the tumor retains its own characteristics and grows using the growth factors supplied by the host animal. The ability of administered ASMO1 to inhibit the growth of tumor can be a valuable tool to evaluate its efficacy as an anti-tumor agent. Measurement of tumor size at defined intervals of time generates data that can be used to calculate various end point parameters derived from tumor and understand the potency of the test compounds.\nHuman glioblastoma cancer cells (U-87MG) were cultured and expanded in EMEM (Eagle's Minimum Essential Medium) supplemented with 10% Fetal Bovine Serum (FBS) at 37° C. and 5% CO2. The cells growing at log phase were harvested by trypsinization and centrifuged for 3 minutes at 800 rpm to form a pellet. The pellet was further washed with PBS. Cell suspension stock was prepared to obtain the required cell count. Before cell inoculation, cell viability was determined using trypan blue. 25 μL of cell suspension was stained with 25 μL of trypan blue and viable cells were counted using Neubauer's chamber. Cell number was adjusted by adding serum free media to achieve desired concentration, i.e., 10×10^7/mL.\nCells were diluted such that the concentration of the cells was 10 million cells/100 μL of serum free medium. Overnight thawed Matrigel and cells with medium were mixed 1:1 and a total volume of 200 μL was injected subcutaneously to the donor animals (n=5) at flank region.\nDonor animals were monitored for solid tumor growth for at least 3-4 weeks. Tumor size was measured using digital caliper (MITUTOYO, Japan, CP-15Mx) and volume was calculated by using the formula: (L*W2)/2. Once the tumor reached required size ˜500 mm^3, the donor animals were humanely sacrificed, the tumor was harvested and fragmented into ˜30 mg size and implanted subcutaneously to experimental animals (n=50) using the device. All the animals was monitored alternate day for tumor growth/size.\nOnce the tumor size reached ˜100 mm^3, animals were selected and randomized by stratification method using tumor size into three groups (G1-G3). Treatment for G1-G3 was initiated at this stage. Each group was comprised of 8 animals.\n• G1 was served as vehicle control group and treated with normal saline at the dose of 5 mL/kg, daily, intravenously for 3 weeks. • G2 was served as Reference Item treated group and treated with TMZ at the dose of 5 mg/kg, p.o., daily for 3 weeks. • G3 was treated with APT20TTMG at the dose of 20 mg/kg, intravenously, every third day (q3d) for 3 weeks.\nBody weight and tumor size were measured weekly twice using digital caliper. At termination, blood was collected through retro-orbital route. Serum/plasma was separated and stored at deep freezer (−20° C.). Post blood collection, animals were humanely sacrificed by CO2 asphyxiation as per latest guidelines issued by CPCSEA. All the vital organ (brain, kidney, liver, lungs, heart) and tumor were dissected out. Vital organs were fixed in 10% NBF and stored. Tumor tissue was dissected out, weighed and portion of tumor tissue was fixed in 10% NBF and another portion is snap frozen and stored at deep freezer (−80° C.).\nAs shown in FIG. 34A-C, tumor fragments from the U-87MG cell line were implanted in the animals and once the tumor size reached ˜100 mm^3 animals were randomized into 3 experimental groups (G1, G2, and G3). G1: Vehicle, (G2) Reference Item Temozolomide, and (G3) APT20TTMG for a total of 22 days. (A) The tumor volume of the animals was measured twice/a week. (B) Animals were weighed throughout the experiment and the change in weight gain compared to pre-treatment weight was plotted. (C) After the euthanasia of the animals, the tumors were removed and weighed."}, "[4]": {"test_system": "Human Glioblastoma Cancer (U-87MG) xenograft", "test": "Histopathology of tumor samples with scoring", "design": "key: 1: Minimal Fibrosis; 2: Mild Fibrosis; 3: Moderate Fibrosis; 4: Prominent", "details": "individual animals; G3 APT20TTMG, G2 TMZ", "excerpt": "as §1"}, "[5]": {"test_system": "Human Glioblastoma Cancer (U-87MG) xenograft", "test": "Histopathology of tumor samples with scoring", "design": "key: 1: Few; 2: Moderate; 3: Large", "details": "individual animals; G3 APT20TTMG, G2 TMZ", "excerpt": "as §1"}},
  "note": "Where “and” joins values, the source holds several entries; their conditions need not be identical. Equal values may be shown once. Entries after “also recorded” stand apart in the source; their conditions may differ.",
  "data": [
    {"smiles": "Cn1nnc2c(C(N)=O)ncn2c1=O", "note": "[TMZ, Temozolomide, reference compound]", "values": [
      {"measurement": "Histopathological findings: Grade", "setting": "[1]", "result": "Grade- 2; also recorded: Grade- 3"},
      {"measurement": "Score: Apoptosis", "setting": "[1]", "result": "3 (7×) and 2"},
      {"measurement": "Score: Connective tissue stroma", "setting": "[1]", "result": "3 (2×) and 2 (5×) and 1"},
      {"measurement": "Score: Grade", "setting": "[1]", "result": "2 (5×) and 3 (3×)"},
      {"measurement": "Score: Lipid content", "setting": "[1]", "result": "3 (4×) and 2 and 1 (3×)"},
      {"measurement": "Score: N:C ratio", "setting": "[1]", "result": 2},
      {"measurement": "Score: Volume Tumor", "setting": "[1]", "result": "4 (>1500) and 1 (<500) (2×) and 2 (500-1000) (2×) and 3 (1000-1500) (3×)"},
      {"measurement": "Score: Necrosis", "setting": "[2]", "result": 3},
      {"measurement": "tumor reduction in relation to the negative control", "setting": "[3]; day 20", "result": "41.3±11.1", "unit": "%"},
      {"measurement": "tumor reduction in relation to the negative control", "setting": "[3]; day 22", "result": "31.1±13.4", "unit": "%"},
      {"measurement": "Volume (tumor)", "setting": "[3]; individual animals, G3 APT20TTMG, G2 TMZ", "result": "Volume 1593.8; also recorded: Volume 113.1; also recorded: Volume 937.9; also recorded: Volume 339.1; also recorded: Volume 1447.2; also recorded: Volume 830.6; also recorded: Volume 1277.9; also recorded: Volume 1479.7"},
      {"measurement": "Score: Necrosis", "setting": "[4]", "result": 4},
      {"measurement": "Score: Mitotic figures", "setting": "[5]", "result": "3 (4×) and 1 (4×)"}
    ]}
  ]
}
